Measurements published in patent publication EP0183174A2, “Substituted phenoxy urea, processes for its preparation and herbicide containing it as active ingredient” (KUMIAI CHEMICAL INDUSTRY CO., LTD., priority 1984, dated 1986).

Legend:
crabgrass = experiment: Test Example 4: herbicidal test by upland foliage treatment; assay type: in vivo, Digitaria sanquinalis L.; design: key: 5: Withered; 4.5: Herbicidal effect (or phytotoxicity) in a range of 90 to 99%; 4: Herbicidal effect (or phytotoxicity) in a range of 80 to 89%; 3.5: Herbicidal effect (or phytotoxicity) in a range of 70 to 79%; 3: Herbicidal effect (or phytotoxicity) in a range of 60 to 69%; 2.5: Herbicidal effect (or phytotoxicity) in a range of 50 to 59%; 2: Herbicidal effect (or phytotoxicity) in a range of 40 to 49%; 1.5: Herbicidal effect (or phytotoxicity) in a range of 30 to 39%; 1: Herbicidal effect (or phytotoxicity) in a range of 20 to 29%; 0.5: Herbicidal effect (or phytotoxicity) in a range of 1 to 19%; 0: No herbicidal effect (or no phytotoxicity)
Procedure: (§1) Into each plastic pot of 120 cm^2, upland soil was filled, then seeds of barnyardgrass, crabgrass, redroot pigweed and rice flatsedge were sown, and they were grown in a greenhouse until barnyardgrass. reached 3-leaf stage. Each wettable powder prepared from the test compound in accordance with Formulation Example 3 was diluted with water to give the amount of the active ingredient corresponding to 4 kg/hectare, and the diluted solution was uniformly sprayed at an application rate of 1000 liter/hectare from the top of plants by means of a small size spray, when barnyardgrass was in the 3-leaf stage. They were grown in a greenhouse, and twenty days after the application, the herbicidal effects were evaluated in accordance with the standards as identified in Table 5.

rice = experiment: Test Example 3: herbicidal test by upland soil treatment (phytotoxicity); assay type: in vivo; design: key: 5: Withered; 4.5: Herbicidal effect (or phytotoxicity) in a range of 90 to 99%; 4: Herbicidal effect (or phytotoxicity) in a range of 80 to 89%; 3.5: Herbicidal effect (or phytotoxicity) in a range of 70 to 79%; 3: Herbicidal effect (or phytotoxicity) in a range of 60 to 69%; 2.5: Herbicidal effect (or phytotoxicity) in a range of 50 to 59%; 2: Herbicidal effect (or phytotoxicity) in a range of 40 to 49%; 1.5: Herbicidal effect (or phytotoxicity) in a range of 30 to 39%; 1: Herbicidal effect (or phytotoxicity) in a range of 20 to 29%; 0.5: Herbicidal effect (or phytotoxicity) in a range of 1 to 19%; 0: No herbicidal effect (or no phytotoxicity); settings: evaluated twenty days after application
Source text: (§2) Into each plastic pot of 600 cm^2, upland soil was filled, then seeds of barnyardgrass, crabgrass, green foxtail, redroot pigweed, rice flatsedge, rice, wheat, maize, soybean, cotton and sugar beet were sown, and they were covered with soil. A predetermined amount of the wettable powder prepared from the test compound in accordance with Formulation Example 3 and diluted with water, was uniformly applied to the surface of the soil at an application rate of 1000 liter/hectare by means of a small size spray. They were grown in a greenhouse, and twenty days after the application, the herbicidal effects and phytotoxicity were evaluated in accordance with the standards as identified in Table 5.

maize = experiment: as above; assay type: in vivo; design: key: 5: Withered; 4.5: Herbicidal effect (or phytotoxicity) in a range of 90 to 99%; 4: Herbicidal effect (or phytotoxicity) in a range of 80 to 89%; 3.5: Herbicidal effect (or phytotoxicity) in a range of 70 to 79%; 3: Herbicidal effect (or phytotoxicity) in a range of 60 to 69%; 2.5: Herbicidal effect (or phytotoxicity) in a range of 50 to 59%; 2: Herbicidal effect (or phytotoxicity) in a range of 40 to 49%; 1.5: Herbicidal effect (or phytotoxicity) in a range of 30 to 39%; 1: Herbicidal effect (or phytotoxicity) in a range of 20 to 29%; 0.5: Herbicidal effect (or phytotoxicity) in a range of 1 to 19%; 0: No herbicidal effect (or no phytotoxicity); settings: evaluated twenty days after application
Source text: as §2

cotton = experiment: as above; assay type: in vivo; design: key: 5: Withered; 4.5: Herbicidal effect (or phytotoxicity) in a range of 90 to 99%; 4: Herbicidal effect (or phytotoxicity) in a range of 80 to 89%; 3.5: Herbicidal effect (or phytotoxicity) in a range of 70 to 79%; 3: Herbicidal effect (or phytotoxicity) in a range of 60 to 69%; 2.5: Herbicidal effect (or phytotoxicity) in a range of 50 to 59%; 2: Herbicidal effect (or phytotoxicity) in a range of 40 to 49%; 1.5: Herbicidal effect (or phytotoxicity) in a range of 30 to 39%; 1: Herbicidal effect (or phytotoxicity) in a range of 20 to 29%; 0.5: Herbicidal effect (or phytotoxicity) in a range of 1 to 19%; 0: No herbicidal effect (or no phytotoxicity); settings: evaluated twenty days after application
Source text: as §2

Paddy rice = experiment: Test Example 2: herbicidal test for selectivity between rice and barnyardgrass (phytotoxicity); assay type: in vivo; settings: transplanted rice seedlings of 2-leaf stage, thirty days after application
Procedure: (§3) Into each 1/5000 are Wager pot, paddy soil was filled and puddled, then seeds of barnyardgrass were sown and grown until they reached 2-leaf stage. The barnyardgrass of 2-leaf stage was thinned out to adjust the number of barnyardgrass to fifteen per pot, and rice seedlings of 2-leaf stage were transplanted in the same pot. […] Thereafter, they were grown in a green house, and thirty days after the application, the herbicidal effects and phytotoxicity were evaluated in accordance with the standards as identified in Table 5.

sugar beet = experiment: Test Example 3: herbicidal test by upland soil treatment (phytotoxicity); assay type: in vivo; settings: evaluated twenty days after application
Source text: as §2

redroot pigweed = experiment: Test Example 4: herbicidal test by upland foliage treatment; assay type: in vivo, Amaranthus retroflexus L.
Procedure: as §1

barnyardgrass = experiment: Test Example 2: herbicidal test for selectivity between rice and barnyardgrass (herbicidal effects); assay type: in vivo, Echinochloa crus-galli L.; settings: barnyardgrass of 2-leaf stage, thirty days after application
Procedure: as §3

[1] = active ingredient 4 kg/hectare, foliage spray 1000 liter/hectare at 3-leaf stage of barnyardgrass, twenty days after application
[2] = upland foliage treatment, 4 kg/hectare active ingredient, sprayed at 1000 liter/hectare at barnyardgrass 3-leaf stage, evaluated twenty days after application

| SMILES | Herbicidal effects Crabgrass (crabgrass; [1]) | Phytotoxicity Rice (rice; Dose 1 kg/HA) | Phytotoxicity Rice (rice; Dose 4 kg/HA) | Phytotoxicity Maize (maize; Dose 1 kg/HA) | Phytotoxicity Maize (maize; Dose 4 kg/HA) | Phytotoxicity Cotton (cotton; Dose 1 kg/HA) | Phytotoxicity Cotton (cotton; Dose 4 kg/HA) | Phytotoxicity Paddy rice (Paddy rice; Dose 0.25 kg/Ha) | Phytotoxicity Paddy rice (Paddy rice; Dose 0.5 kg/Ha) | Phytotoxicity Paddy rice (Paddy rice; Dose 1 kg/Ha) | Phytotoxicity Sugar beet (sugar beet; Dose 1 kg/HA) | Phytotoxicity Sugar beet (sugar beet; Dose 4 kg/HA) | Herbicidal effects Redroot pigweed (redroot pigweed; [1]) | Herbicidal effects Barnyard grass (barnyardgrass; Dose 0.25 kg/Ha) | Herbicidal effects Barnyard grass (barnyardgrass; Dose 0.5 kg/Ha) | Herbicidal effects Barnyard grass (barnyardgrass; Dose 1 kg/Ha) | Herbicidal effects Crabgrass (crabgrass; [2]) | Herbicidal effects Redroot pigweed (redroot pigweed; [2]) |
| --- | --- | --- | --- | --- | --- | --- | --- | --- | --- | --- | --- | --- | --- | --- | --- | --- | --- | --- |
| CN(C)C(=O)NOc1cc(Cl)ccc1Cl [Compound No. 1, 3-(2,5-Dichlorophenoxy)-1,1-dimethyl urea] | 4 (Herbicidal effect (or phytotoxicity) in a range of 80 to 89%) | 0 | 0 | 0 | 0 | 0 | 0 | 0 | 0 | 1 (Herbicidal effect (or phytotoxicity) in a range of 20 to 29%) | 2 (Herbicidal effect (or phytotoxicity) in a range of 40 to 49%) | 3 (Herbicidal effect (or phytotoxicity) in a range of 60 to 69%) | 4 (Herbicidal effect (or phytotoxicity) in a range of 80 to 89%) | 5 | 5 | 5 |  |  |
| CC(C)N(C)C(=O)NOc1cc(Cl)cc(Cl)c1 [Compound No. 186, 3-(3,5-Dichlorophenoxy)-1-isopropyl-1-methyl urea trichloroacetate] | 5 |  |  |  |  |  |  | 0 | 1 (Herbicidal effect (or phytotoxicity) in a range of 20 to 29%) |  |  |  | 2 (Herbicidal effect (or phytotoxicity) in a range of 40 to 49%) | 5 | 5 |  |  |  |
| CON(C)C(=O)NOc1cc(Cl)ccc1Cl [Compound No. 242, 3-(2,5-Dichlorophenoxy)-1-methoxy-1-methyl urea] |  |  |  |  |  |  |  |  |  |  |  |  |  |  |  |  | 5 | 3 (Herbicidal effect (or phytotoxicity) in a range of 60 to 69%) |
| COCCNC(=O)NOc1cc(Cl)ccc1Cl [Compound No. 243] |  |  |  |  |  |  |  |  |  |  |  |  |  |  |  |  | 4 (Herbicidal effect (or phytotoxicity) in a range of 80 to 89%) | 4 (Herbicidal effect (or phytotoxicity) in a range of 80 to 89%) |
